Experimental data from patent US9944690B2, “Methods for controlling T cell proliferation” (BELLICUM PHARMACEUTICALS, INC., priority 2013, dated 2018).
“Also recorded” adds a separate entry of the source. Like-named read-outs stand apart in the source and are kept apart here.

What was measured:
cells = test: Amount of AP1903 needed in vitro for effective signaling of cells; type: cell-based
Method: The amount of AP1903 needed in vitro for effective signaling of cells is about 10-100 nM (MW: 1412 Da). This equates to 14-140 μg/L or ˜0.014-0.14 mg/kg (1.4-140 μg/kg). The dosage may vary according to the application, and may, in certain examples, be more in the range of 0.1-10 nM, or in the range of 50-150 nM, 10-200 nM, 75-125 nM, 100-500 nM, 100-600 nM, 100-700 nM, 100-800 nM, or 100-900 nM. Doses up to 1 mg/kg were well-tolerated in the Phase I study of AP1903 described above.

[1] = tested on: T cells transduced with the retrovirus containing iMC (RV-172); test: AP1903-induced T cell activation by cytokine production (Bio-Plex 27-plex); type: cell-based, human; details: iMC (RV-172) T cells, 10 nM AP1903, 24 hours, supernatant
Method: 5. To assess AP1903-dependent T cell activation of T cells, 1×10^5 non-transduced (NT) or T cells transduced with the control retrovirus (RV-171) or the retrovirus containing iMC(RV-172) were plated in triplicate in 96-well plates and cultured at 37° C. 5% CO2 with media alone, or media containing 10 nM AP1903.
6. After 24 hours, the cells were gently mixed and the plate was centrifuged. Supernatant was then collected and plated into a Bio-Plex Human Cytokine/Chemokine 27-plex plate, which measures the following cytokines and chemokines: • a. Basic-FGF, G-CSF, GM-CSF, IFN-gamma, IL-1Ra, IL-1beta, IL-2, IL-4, IL-5, IL-6, […], IL-7, […], IL-9, IL-10, IL-12p70, IL-13, IL-15, IL-17RA, eotaxin, IP10, MCP-1, MIP-1alpha, MIP-1beta, PDGF-bb, RANTES, TNF-alpha and VEGF. • b. The cytokines and chemokines in the supernatants were subsequently measured and compared to standards in the plate using a Bio-Plex MAGPIX Multiplex Reader.
T cells were stimulated with 10 nM AP1903 for 24 hours then supernatants were assayed for cytokine levels.

CAPAN-1-GFP tumor cells = test: Co-culture of iMC-enabled T cells with CAPAN-1 tumor cells; type: cell-based, human; details: RV-172 T cells : CAPAN-1-GFP 5:1, 10 nM AP1903, 72 hours
[2] = cited from earlier work
[3] = tested on: T cells transduced with RV-172; test: T cell proliferation in co-culture wells on AP1903 stimulation; details: RV-172 T cells with 10 nM AP1903, co-culture 72 hours, both donors
Method: Non-transduced T cells or cells transduced with RV-171 (control vector) or RV-172 (iMC vector) were cultured at a 5:1 ratio of T cells to tumor cells in media supplemented with 50 U/ml IL-2, and either with or without 10 nM AP1903. Co-cultures were then incubated at 37° C. and 5% CO2 for 72 hours. Cultures were subsequently analyzed for the presence of GFP tumor cells by fluorescent microscopy and by harvesting the cultures with 0.25% trypsin/EDTA and measuring the frequency of GFP^+CD3^− tumor cells in the culture by flow cytometry.
Following these initial observations, T cells and tumor cells were harvested and analyzed by flow cytometry to determine the frequency of remaining CAPAN-1 GFP^+ tumor cells.

Which “amount needed for effective signaling, as dose” value (cells; converted from 14-140 μg/L) does the source give for CC[C@H](C(=O)N1CCCC[C@H]1C(=O)O[C@H](CCc1ccc(OC)c(OC)c1)c1cccc(OCC(=O)NCCNC(=O)COc2cccc([C@@H](CCc3ccc(OC)c(OC)c3)OC(=O)[C@@H]3CCCCN3C(=O)[C@@H](CC)c3cc(OC)c(OC)c(OC)c3)c2)c1)c1cc(OC)c(OC)c(OC)c1 (relative stereo) [AP1903, 2-Piperidinecarboxylic acid, 1-[(2S)-1-oxo-2-(3,4,5-trimethoxyphenyl)butyl]-, 1,2-ethanediylbis[imino(2-oxo-2,1-ethanediyl)oxy-3,1-phenylene[(1R)-3-(3,4-dimethoxyphenyl)propylidene]]ester, [2S-[1(R*),2R*[S*[S*[1(R*),2R*]]]]]-(9Cl)] here?
The value was 14 to 140 µg/kg.

What about the “amount needed for effective signaling, as mass concentration” value (cells; converted with MW 1412 Da) of the same compound?
The value was 14 to 140 µg/L.

And the “amount needed for effective signaling, as dose” value (cells; figure in brackets after the mg/kg range)?
The value was 1.4 to 140 µg/kg.

And the “amount needed in vitro for effective signaling of cells” value (cells; in vitro)?
Its value is 10 to 100 nM.

What about the Basic-FGF secretion [1] of the same compound?
Its Basic-FGF secretion is “did not appear to be induced”.

And the G-CSF secretion [1]?
Its G-CSF secretion is “did not appear to be induced”.

And the GM-CSF secretion [1]?
Its GM-CSF secretion is “showed induction”.

And the IFN-gamma secretion [1]?
Its IFN-gamma secretion is “showed induction”.

And the IL-1Ra secretion [1]?
Its IL-1Ra secretion is “did not appear to be induced”.

What about the IL-1beta secretion [1] of the same compound?
Its IL-1beta secretion is “showed induction”.

And the IL-2 secretion [1]?
The IL-2 secretion was “did not appear to be induced”.

And the IL-4 secretion [1]?
The IL-4 secretion was “showed induction”.

And the IL-5 secretion [1]?
Its IL-5 secretion is “showed induction”.

What about the IL-6 secretion [1] of the same compound?
Its IL-6 secretion is “showed induction”.

And the IL-7 secretion [1]?
The IL-7 secretion was “did not appear to be induced”.

And the IL-8 secretion [1]?
Its IL-8 secretion is “showed induction”.

What about the IL-9 secretion [1] of the same compound?
The IL-9 secretion was “did not appear to be induced”.

And the IL-10 secretion [1]?
The IL-10 secretion was “did not appear to be induced”.

What about the IL-12p70 secretion [1] of the same compound?
The IL-12p70 secretion was “showed induction”.

What about the IL-13 secretion [1] of the same compound?
The IL-13 secretion was “showed induction”.

What about the IL-15 secretion [1] of the same compound?
Its IL-15 secretion is “did not appear to be induced”.

What about the IL-17RA secretion [1] of the same compound?
Its IL-17RA secretion is “did not appear to be induced”.

And the IP10 secretion [1]?
The IP10 secretion was “showed induction”.

And the MCP-1 secretion [1]?
Its MCP-1 secretion is “did not appear to be induced”.

And the MIP-1alpha secretion [1]?
Its MIP-1alpha secretion is “showed induction”.

What about the MIP-1beta secretion [1] of the same compound?
Its MIP-1beta secretion is “showed induction”.

What about the PDGF-bb secretion [1] of the same compound?
The PDGF-bb secretion was “did not appear to be induced”.

What about the RANTES secretion [1] of the same compound?
Its RANTES secretion is “showed induction”.

What about the TNF-alpha secretion [1] of the same compound?
Its TNF-alpha secretion is “showed induction”.

And the VEGF secretion [1]?
Its VEGF secretion is “did not appear to be induced”.

And the eotaxin secretion [1]?
Its eotaxin secretion is “did not appear to be induced”.

And the “GFP+ tumor cells by flow cytometry” value (CAPAN-1-GFP tumor cells)?
The value was “reduction of GFP^+ tumor cells; also recorded: induces T cell killing of tumor cells”.

And the “GFP+ tumor cells by fluorescent microscopy” value (CAPAN-1-GFP tumor cells)?
Its value is “very few viable GFP^+ tumor cells; also recorded: elimination of GFP^+ tumor cells”.

And the “relation of AP1903 plasma levels to dose” value ([2]; 0.01, 0.05, 0.1, 0.5 and 1.0 mg/kg IV over 2 hours)?
The value was “directly proportional to dose”.

And the “plasma level as % of maximal concentration” value (from here on “plasma level as %”) ([2]; 0.5 hours post-dose)?
Its value is “approximately 18%”.

And the “plasma level as %” value ([2]; 2 hours post-dose)?
Its value is roughly 7%.

And the “plasma level as %” value ([2]; 10 hours post-dose)?
The value was roughly 1%.

And the well-tolerated doses ([2]; Phase I study)?
The well-tolerated doses was “up to 1 mg/kg”.

And the “mean Cmax” value ([2]; plasma, single doses over the 0.01-1.0 mg/kg dose range infused IV over 2 hours, 24 healthy volunteers)?
Its value is 10 to 1275 ng/mL.

What about the “T cell proliferation / T cell blast activation (inspection, microscopy)” value [3] of the same compound?
Its value is “proliferating; also recorded: activation of T cell blasts”.
